The source of these data is patent US9145375B2, “Quinazolinone compounds” (PRANA BIOTECHNOLOGY LIMITED, priority 2008, dated 2015).

Broadly, the Cmax is the highest concentration seen after dosing. The Tmax is the time at which the peak concentration occurs. As a reminder, the half-life is the time needed for the level to fall by half in the phase considered. The term IC50 denotes the midpoint of a concentration-inhibition curve. A lower IC50 goes with greater potency in that assay.

The nature of data set [1]: Metabolism in hepatocytes (predicted EH), human. In kind it is in vitro ADME.
The nature of a further data set: PK Studies in the Rat. In kind it is in vivo. The settings on record: for Cmax / Tmax / half-life / AUC(0-t): plasma; for AUC(0-t): read-out: AUC0-24 h (converted). The procedure: Assay 5. Pharmacokinetic Profile
The pharmacokinetic profile of test compounds is determined by the following assay: • Intravenous infusion of test compound; 2 mg/Kg in a suitable vehicle is […]; […] up to 24 hours. • Plasma concentrations of test compound are determined by suitable analytical method.
(§1) [formula] [formula] [formula] • CLtotal=total plasma clearance after IV administration • Vdβ=volume of distribution during the elimination phase after IV administration • BA=oral bioavailability • AUCIV=area under the plasma concentration versus time profile from time zero to infinity after IV administration • AUCoral=area under the plasma concentration versus time profile from time zero to infinity after oral administration • β=terminal elimination rate constant after IV administration Assay 6. Blood Brain Barrier Penetration

In the next data set the target is T1, CYP2C9 (Homo sapiens, UniProt P11712).
T1 construct: using a specific substrate approach in human liver microsomes; from tissue; host or cells: human liver microsomes
T1 sequence (P11712 whole entry): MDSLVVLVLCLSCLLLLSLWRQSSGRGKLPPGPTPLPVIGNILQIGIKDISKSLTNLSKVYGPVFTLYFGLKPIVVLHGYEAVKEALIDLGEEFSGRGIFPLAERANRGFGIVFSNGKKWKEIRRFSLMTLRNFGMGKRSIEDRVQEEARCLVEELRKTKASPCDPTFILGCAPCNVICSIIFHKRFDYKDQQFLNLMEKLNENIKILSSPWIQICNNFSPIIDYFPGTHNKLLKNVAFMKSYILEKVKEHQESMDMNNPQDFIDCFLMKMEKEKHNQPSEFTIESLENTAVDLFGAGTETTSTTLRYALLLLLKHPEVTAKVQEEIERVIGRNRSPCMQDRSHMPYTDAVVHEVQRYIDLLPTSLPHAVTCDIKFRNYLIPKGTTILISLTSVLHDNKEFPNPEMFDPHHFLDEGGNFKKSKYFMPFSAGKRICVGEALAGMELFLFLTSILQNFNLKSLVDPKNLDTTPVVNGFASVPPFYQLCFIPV
Kind of data set: CYP450 inhibition, specific substrate approach in human liver microsomes: CYP2C9. In kind it is in vitro ADME. The procedure: (§2) CYP450 Isoform Inhibition Using a Specific Substrate Approach
(§3) The present study is a “Tier 2” screen to assess potential enzyme inhibition at a test compound concentration of 20 μM using a specific substrate approach in human liver microsomes.
(§4) The substrate specific enzyme inhibition study relies on the formation of a metabolite that is mediated by a specific CYP450 isoform using human liver microsomes. In the current study, the following reactions were monitored to assess interactions with specific CYP450 isoforms. A known inhibitor of each isoform was included in each assay as a positive control. The following IC50 values have been reported in the literature using equivalent assay conditions for each CYP450 isoform:
(§5) The reaction was initiated by the addition of an NADPH-regenerating system and was quenched by the addition of acetonitrile prior to determining the concentration (and apparent rate of formation) of the specific metabolite by LC/MS.
(§6) The IC50 was deemed to be the concentration at which there was a 50% reduction in the amount of metabolite formed, relative to the maximal extent of formation.
(In general: Liver microsomes are vesicles of endoplasmic reticulum, rich in cytochrome P450 enzymes.)

A short description of data set [2]: Blood Brain Barrier Penetration (brain to plasma ratio). To be noted: male, Swiss Outbred, mouse, brain and plasma; for Kp at 5 min / Kp at 1 h: 150 μg/mouse, IV, read-out: Brain to Plasma Ratio (IV) (B:P); for Kp at 1 h: at 60 min; for Kp at 0.5 h / Kp at 4 h: Oral dosing, read-out: Brain to Plasma Ratio (B:P); for Kp at 0.5 h: at 30 min; for Kp at 4 h: at 240 min. In kind it is in vivo.
Description: as §1
A bolus injection of each of the test compound (50 μL of a 3 mg/mL aqueous solution containing 40% propylene glycol and 10% ethanol) was administered by tail vein injection to male Swiss Outbred mice (5-7 weeks of age). Alternatively, test compound was orally administered to mice according to standard procedures known to the skilled person.
[…] Mice were anaesthetised approximately 3-4 min prior to blood and brain harvest with an intraperitoneal injection of ketamine and xylazine (133 mg/kg and 10 mg/kg, respectively). The whole brain was placed into pre-weighed polypropylene vials and stored at −20° C. until analysis. On the day of analysis, the whole brain was homogenised in 3 parts of water (on ice to reduce the potential for ex vivo brain degradation) and an aliquot of the brain homogenate and plasma was analysed for compound concentration by LCMS. Standards were prepared by spiking blank brain homogenate and both samples and standards were processed by adding acetonitrile to the tissue homogenate, centrifuging and injecting an aliquot of the supernatant onto the LCMS.
To ensure complete recovery of compound from the brain, brain homogenate was spiked with compound (in 50% acetonitrile:50% water) to a nominal concentration of 500 ng/mL. The concentration of compound in the supernatant was then determined by LCMS and compared to the supernatant concentration when compound was added following precipitation with acetonitrile.
[formula] [formula] [formula] [formula] • Cbrain=concentration of compound in brain parenchyma (ng/g) • Cbrain homogenate=concentration of compound in brain homogenate (ng/g) • Cbrain vasculature=concentration of compound in brain vasculature (ng/g) • CPlasma=concentration of compound in plasma (ng/mL) • VP=brain plasma volume (26 μL/g for male Swiss Outbred mice) • B:P=brain-to-plasma ratio • Papp=apparent permeability coefficient of compound permeating the blood-brain barrier • ∫0^tcplasmadt=concentration of compound in plasma from time zero to 5 min post-dose (equivalent to the 5 min post-dose plasma concentration, assuming no back diffusion from brain to plasma within this time period) • A=surface area of capillaries forming the blood-brain barrier (240 cm^2/g brain weight for mouse) Assay 7 In Vitro Metabolism in Human Liver Microsomes

Another data set has as its target T2, CYP1A2 (Homo sapiens, UniProt P05177).
T2 construct: using a specific substrate approach in human liver microsomes; from tissue; host or cells: human liver microsomes
T2 sequence (P05177 1-516): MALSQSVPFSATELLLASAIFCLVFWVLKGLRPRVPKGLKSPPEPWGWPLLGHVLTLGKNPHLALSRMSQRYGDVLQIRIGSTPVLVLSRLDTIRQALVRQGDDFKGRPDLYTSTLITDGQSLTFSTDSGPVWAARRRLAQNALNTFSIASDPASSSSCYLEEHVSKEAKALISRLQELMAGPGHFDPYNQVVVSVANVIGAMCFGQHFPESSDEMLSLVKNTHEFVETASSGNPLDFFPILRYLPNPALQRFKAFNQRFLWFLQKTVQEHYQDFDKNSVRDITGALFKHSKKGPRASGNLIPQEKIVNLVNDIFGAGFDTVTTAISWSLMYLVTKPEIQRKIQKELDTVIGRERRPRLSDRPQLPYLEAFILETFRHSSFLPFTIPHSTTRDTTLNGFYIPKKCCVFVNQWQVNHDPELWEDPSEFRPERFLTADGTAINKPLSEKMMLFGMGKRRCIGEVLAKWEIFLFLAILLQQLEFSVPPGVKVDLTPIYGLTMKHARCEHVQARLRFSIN
Kind of data set: CYP450 inhibition, specific substrate approach in human liver microsomes: CYP1A2. In kind it is in vitro ADME. The procedure:
as §2, §3, §4, §5, §6

Another data set concerns the target T3, CYP2C19 (Homo sapiens, UniProt P33261).
T3 construct: using a specific substrate approach in human liver microsomes; from tissue; host or cells: human liver microsomes
Kind of data set: CYP450 inhibition, specific substrate approach in human liver microsomes: CYP2C19. In kind it is in vitro ADME. The procedure: as §2, §3, §4, §5, §6

Where two headings read alike, the source gives them in different places.

T3 sequence (P33261 whole entry): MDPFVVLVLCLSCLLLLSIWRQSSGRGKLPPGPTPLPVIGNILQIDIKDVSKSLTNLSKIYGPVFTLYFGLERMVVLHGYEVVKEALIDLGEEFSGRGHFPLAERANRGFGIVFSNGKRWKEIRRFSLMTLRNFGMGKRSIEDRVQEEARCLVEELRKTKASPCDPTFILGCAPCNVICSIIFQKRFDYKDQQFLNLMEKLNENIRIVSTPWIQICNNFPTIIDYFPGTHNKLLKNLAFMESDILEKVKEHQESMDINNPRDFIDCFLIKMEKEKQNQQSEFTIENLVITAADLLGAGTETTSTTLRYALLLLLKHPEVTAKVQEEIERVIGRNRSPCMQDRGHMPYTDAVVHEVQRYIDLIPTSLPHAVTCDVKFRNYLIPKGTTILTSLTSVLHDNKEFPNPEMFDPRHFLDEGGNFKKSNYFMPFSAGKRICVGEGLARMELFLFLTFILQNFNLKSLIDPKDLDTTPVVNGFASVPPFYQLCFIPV

For `CNCc1nc2c(O)c(Cl)cc(Cl)c2c(=O)n1C` [Compound F4161], in data set [1], the “Metabolism (Predicted EH), Hepatocytes: Human” value (“Metabolism (Predicted EH)” for short) was 0.20. For the same compound, in “PK Studies in the Rat” (route and dose not given), the peak concentration (Cmax) came out at 6.7 µM, the time to peak (Tmax) is 0.25 h, the half-life was 6.7 h and the AUC(0-t) was 14.1 µM·h. In addition, in the data set “PK Studies in the Rat” (route and dose not given), the “% dose in urine” value is on record as “urine = 0.1%” and the l24 entry was “l24 = 0.045-0.15 μM”.
With `CN(C)Cc1nc2c(O)c(Cl)cc(Cl)c2c(=O)n1CC1CC1` [Compound F4267], the IC50 against CYP2C9 was more than 30 µM; against CYP1A2, 15.3 µM; against CYP2C19, more than 30 µM. Moreover, the Kp at 5 min in data set [2] turned out to be 3.46. Besides, the Kp at 1 h in data set [2] came out at 2.02. For the same compound, the “Metabolism (Predicted EH)” value in data set [1] is on record as 0.44. Besides, the l24 entry in the data set “PK Studies in the Rat” (oral 30 mg/Kg) is reported as “l24 = 0.25-0.5 uM”. Also, the half-life in the data set “PK Studies in the Rat” (oral 30 mg/Kg) was found to be 4.9 h.
For `CCn1c(CN(C)C)nc2c(O)c(Cl)cc(Cl)c2c1=O.Cl` [Compound F4268], the IC50 against CYP2C9 is more than 20 µM. Besides, in data set [2], the Kp at 5 min is 2.96 and the Kp at 1 h came out at 2.63. In data set [1], the “Metabolism (Predicted EH)” value is given as 0.28. Besides, at CYP1A2, the IC50 was approximately 20 µM. In the data set “PK Studies in the Rat” (oral 30 mg/Kg), the “% dose in urine” value was 0.1% dose, the “Rel. Exposure” value turned out to be 51.9%, the l24 entry is “l24 = 0.02-0.05 uM” and the peak level (Cmax) was 10 µM. In addition, in the data set “PK Studies in the Rat” (oral 30 mg/Kg), the Tmax was determined as 0.333 h and the half-life was determined as 4.3 h. This compound also came in with a concentration for half-maximal inhibition (IC50) at CYP2C19 of more than 20 µM.
The compound `CN(C)Cc1nc2c(O)c(Cl)cc(Cl)c2c(=O)n1C` [Compound F4269, 5,7-Dichloro-2-(dimethylamino)methyl-8-hydroxy-3-methylquinazolin-4(3H)-one] displayed an IC50 against CYP2C9 of more than 30 µM. Further, in data set [2], the Kp at 5 min came to 2.96 and the Kp at 1 h is 2.12. Also, the “Metabolism (Predicted EH)” value in data set [1] is 0.38. Further, the midpoint of inhibition on CYP1A2, the IC50, lay at 24.1 µM. For the same compound, in the data set “PK Studies in the Rat” (oral 20 mg/Kg), the “% dose in urine” value was 0.1% dose, the l24 entry was “l24 = 0.01-0.03 uM”, the peak concentration (Cmax) stood at 3.3 µM and the time to peak (Tmax) amounted to 0.375 h. In addition, in the data set “PK Studies in the Rat” (oral 20 mg/Kg), the half-life came to 5.6 h and the AUC(0-t) was 5.5 µM·h. Further, the half-maximal inhibitory concentration (IC50) against CYP2C19 was more than 30 µM.
As to `CCN(CC)Cc1nc2c(O)c(Cl)cc(Cl)c2c(=O)n1CC1CC1` [Compound F4385], the IC50 against CYP2C9 is more than 30 µM. Further, in data set [2], the Kp at 0.5 h was found to be 0.31 and the Kp at 4 h is 0.42. Besides, the “Metabolism (Predicted EH)” value in data set [1] is reported as 0.55. The same compound had an IC50 against CYP1A2 of 13.4 µM. In addition, in the data set “PK Studies in the Rat” (oral 20 mg/Kg), the “% dose in urine” value was found to be 0.05% dose, the l24 result is “l24 = 0.5-1.5 u uM”, the Cmax amounted to 7.3 µM and the Tmax amounted to 0.5 h. For the same compound, in the data set “PK Studies in the Rat” (oral 20 mg/Kg), the half-life turned out to be 14.7 h and the AUC(0-t) is 52.1 µM·h. The concentration for half-maximal inhibition (IC50) on CYP2C19 is more than 30 µM.
For `C#CCN(C)Cc1nc2c(O)c(Cl)cc(Cl)c2c(=O)n1CC1CC1` [Compound F4387], in data set [2], the Kp at 5 min is 0.65 and the Kp at 1 h was found to be 0.29.
Take `Br.CCn1c(CNC)nc2c(O)c(Cl)cc(Cl)c2c1=O` [Compound F4486]: in data set [2], the Kp at 0.5 h was found to be 0.23 and the Kp at 4 h amounted to 0.22.
In turn, `CCNCc1nc2c(O)c(Cl)cc(Cl)c2c(=O)n1CC` [Compound F4495] gave an IC50 against CYP2C9 of more than 30 µM. Also, in data set [2], the Kp at 0.5 h was found to be 0.65 and the Kp at 4 h was determined as 0.64. For the same compound, the “Metabolism (Predicted EH)” value in data set [1] is 0.22. At CYP1A2, this compound yielded an IC50 of 13.7 µM. Also, in “PK Studies in the Rat” (oral 20 mg/Kg), the “% dose in urine” value is listed as 0.18% dose, the l24 entry is recorded as “l24 = 0.05-0.3 uM”, the highest level (Cmax) was 56.7 µM and the Tmax stood at 0.5 h. In “PK Studies in the Rat” (oral 20 mg/Kg), the half-life amounted to 4.1 h and the AUC(0-t) was 87 µM·h. This compound gave an IC50 on CYP2C19 of more than 30 µM.
Consider `Br.CCNCc1nc2c(O)c(Cl)cc(Cl)c2c(=O)n1C` [Compound F4496], for which the concentration for half-maximal inhibition (IC50) against CYP2C9 is more than 30 µM. Moreover, in data set [2], the Kp at 0.5 h amounted to 1.42 and the Kp at 4 h turned out to be 1.97. For the same compound, the “Metabolism (Predicted EH)” value in data set [1] is recorded as 0.43. In addition, at CYP1A2, the IC50 turned out to be 22 µM. For the same compound, in “PK Studies in the Rat” (oral 20 mg/Kg), the “% dose in urine” value turned out to be 0.19% dose, the l24 result is listed as “l24= 0.02-0.1 uM”, the peak concentration (Cmax) is 7.61 µM and the time to peak (Tmax) stood at 0.75 h. Moreover, in the data set “PK Studies in the Rat” (oral 20 mg/Kg), the half-life was 6.1 h and the AUC(0-t) is 17.8 µM·h. The IC50 against CYP2C19 is more than 30 µM.
